Assay results as given in ChEMBL document CHEMBL1134440, “Discovery of 4-amino-5-(3-bromophenyl)-7-(6-morpholino-pyridin-3-yl)pyrido[2,3-d]pyrimidine, an orally active, non-nucleoside adenosine kinase inhibitor” (J Med Chem, 2001).

Experiments:
Adenosine kinase [1] = target: Adenosine kinase (Homo sapiens, UniProt P55263); experiment: Inhibition of adenosine phosphorylation in confluent IMR-32 (human neuroblastoma) cells.; type: functional, cell-based
Adenosine kinase [2] = target: Adenosine kinase (Rattus norvegicus, UniProt Q64640); experiment: In vitro inhibition of Adenosine kinase (AK)
Chain of Adenosine kinase (Rattus norvegicus, UniProt Q64640) (Q64640 whole entry): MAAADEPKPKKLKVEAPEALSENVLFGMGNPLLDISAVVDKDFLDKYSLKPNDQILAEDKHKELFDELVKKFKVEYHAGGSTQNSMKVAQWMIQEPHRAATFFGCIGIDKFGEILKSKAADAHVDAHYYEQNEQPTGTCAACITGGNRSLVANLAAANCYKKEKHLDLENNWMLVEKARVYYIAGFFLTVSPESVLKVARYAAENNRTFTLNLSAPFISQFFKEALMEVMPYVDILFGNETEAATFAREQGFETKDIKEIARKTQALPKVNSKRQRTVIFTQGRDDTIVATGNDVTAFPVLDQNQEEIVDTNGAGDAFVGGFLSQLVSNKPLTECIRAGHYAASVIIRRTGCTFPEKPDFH

Chain of Adenosine kinase (Homo sapiens, UniProt P55263) (P55263 whole entry): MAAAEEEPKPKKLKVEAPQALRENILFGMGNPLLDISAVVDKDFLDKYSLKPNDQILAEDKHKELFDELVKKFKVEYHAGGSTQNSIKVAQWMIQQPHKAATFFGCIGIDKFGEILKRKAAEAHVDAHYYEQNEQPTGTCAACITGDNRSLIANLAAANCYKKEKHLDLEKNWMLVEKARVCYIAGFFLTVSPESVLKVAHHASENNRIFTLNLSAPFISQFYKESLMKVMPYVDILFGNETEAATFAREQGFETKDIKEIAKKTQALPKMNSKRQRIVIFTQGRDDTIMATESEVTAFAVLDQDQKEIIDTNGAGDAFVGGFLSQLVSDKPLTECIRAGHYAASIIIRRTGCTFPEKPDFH

Structure (SMILES)	IC50 (Adenosine kinase [1]) [nM]	IC50 (Adenosine kinase [2]) [nM]
Nc1ncnc2nc(-c3ccc(N4CCOCC4)nc3)cc(-c3cccc(Br)c3)c12	50	1.7
Nc1ncnc(N[C@@H]2O[C@H](CO)[C@@H](O)[C@H]2O)c1[N+](=O)[O-]	26000	2000
CN(C)c1ccc(-c2nc3ncnc(N)c3cc2-c2ccc(C(C)(C)C)cc2)cc1	> 1000	62.5
CN(C)c1ccc(-c2cc(-c3cccc(Br)c3)c3c(N)ncnc3n2)cn1	32	1.8
Nc1ncnc2nc(-c3ccc([N+](=O)[O-])cc3)cnc12	> 10000	4750
COc1ccc(-c2cnc3c(N)ncnc3n2)cc1	> 10000	2000
CN(C)c1ccc(-c2cc(-c3ccccc3)c3c(N)ncnc3n2)cc1	467	–
Nc1ccc(-c2cnc3c(N)ncnc3n2)cc1	> 10000	1750
COc1ccc(-c2cc3c(N)ncnc3nc2-c2ccc(N(C)C)cc2)cc1	567	91.7
Cc1ccc(-c2cc3c(N)ncnc3nc2-c2ccc(N(C)C)cc2)cc1	500	73.3
CN(C)c1ccc(-c2ccc3c(N)ncnc3n2)cc1	> 10000	773
CN(C)c1ccc(-c2nc3ncnc(N)c3nc2-c2ccccc2)cc1	333	25
C[C@H]1O[C@@H](n2cc(-c3ccccc3)c3c(Nc4ccc(F)cc4)ncnc32)[C@H](O)[C@@H]1O	134	2.8
CN(C)c1ccc(-c2cc(C3CCCCC3)c3c(N)ncnc3n2)cc1	467	8.3
Nc1ncnc2nc(-c3ccc(N4CCOCC4)cc3)cnc12	1000	400
CN(C)c1ccc(-c2cc(-c3cccc(Br)c3)c3c(N)ncnc3n2)cc1	167	–
NC[C@H]1O[C@@H](n2cnc3c(N)ncnc32)[C@H](O)[C@@H]1O	6330	15
CN(C)c1ccc(-c2cnc3c(N)ncnc3n2)cc1	3600	440
Nc1ncnc2nc(-c3ccccc3)cnc12	> 10000	5500
COC(=O)c1cccc(-c2cc3c(N)ncnc3nc2-c2ccc(N(C)C)cc2)c1	700	66.7
